Like-named read-outs stand apart in the source and are kept apart here.
Target: T1, human α-synuclein (Homo sapiens, UniProt P37840)
T1 construct: the full-length gene for untagged human α-synuclein was inserted; made in house; host or cells: E. coli BL21(DE3), plasmid derived from pT7 or pET11a
Test: Cell-free Thioflavin T assay of α-synuclein aggregation (αSyn ThT Assay)
Format: biochemical
Conditions: αSyn 50 μM
Procedure, shortened: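 Inhibition is reported as 100% minus background-corrected ThT signal relative to vehicle wells, taken at 36, 47, 48 or 72 h or the last read. Reactions held 50 μM recombinant α-synuclein, 20-100 μM compound, 20-40 μM ThT and 1% DMSO. Incubation was at 37° C., shaken, with a glass bead.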

[1] = class symbol, compounds 100 μM, read-out: αSyn ThT Assay % inhibition, activity range
[2] = mean percent inhibition relative to DMSO control, compounds 100 μM, read-out: αSyn ThT Assay % inhibition
[3] = mean % inhibition of αSyn aggregation relative to DMSO control, compounds at 100 μM, read-out: αSyn ThT Assay % Inhibition
[4] = compounds at 100 μM, class symbol, read-out: αSyn ThT Assay % Inhibition (activity range)

Which inhibition at 100 µM [1] does the source give for `CCCCN1CC(C(=O)O)n2c(c(-c3cccc(C(F)(F)F)c3)c(Cc3cccc4ccccc34)c(C(N)=O)c2=O)S1(=O)=O` (stereo not shown) [Compound 177, 2-butyl-7-carbamoyl-8-(naphthalen-1-ylmethyl)-6-oxo-9-(3-(trifluoromethyl)phenyl)-3,4-dihydro-2H,6H-pyrido[1,2-e][1,2,5]thiadiazine-4-carboxylic acid 1,1-dioxide] here?
The inhibition at 100 µM was greater than 60%.

And the inhibition at 100 µM [2]?
Its inhibition at 100 µM is 97%.

What does the source list for `O=C(O)C1CSc2c(-c3cccc(C(F)(F)F)c3)c(Cc3cccc4ccccc34)cc(=S)n21` (stereo not shown) [Compound 054, 7-(naphthalen-1-ylmethyl)-5-thioxo-8-(3-(trifluoromethyl)phenyl)-2,3-dihydro-5H-thiazolo[3,2-a]pyridine-3-carboxylic acid]?
inhibition at 100 µM [3]: 39%; inhibition at 100 µM [4]: 31 to 60%

Which results are given for `N#Cc1cccc(CN2CC(C(=O)O)n3c2c(-c2cccc(C(F)(F)F)c2)c(Cc2cccc4ccccc24)c(Cl)c3=O)c1` (stereo not shown) [Compound 168, 6-chloro-1-(3-cyanobenzyl)-7-(naphthalen-1-ylmethyl)-5-oxo-8-(3-(trifluoromethyl)phenyl)-1,2,3,5-tetrahydroimidazo[1,2-a]pyridine-3-carboxylic acid]?
inhibition at 100 µM [1]: 31 to 60%; inhibition at 100 µM [2]: 43%

For `CC1(C(=O)O)CNS(=O)(=O)c2c(-c3cccc(C(F)(F)F)c3)c(Cc3cccc4ccccc34)cc(=O)n21` (stereo not shown) [Compound 042, 4-methyl-8-(naphthalen-1-ylmethyl)-6-oxo-9-(3-(trifluoromethyl)phenyl)-3,4-dihydro-2H,6H-pyrido[1,2-e][1,2,5]thiadiazine-4-carboxylic acid 1,1-dioxide], which inhibition at 100 µM [3] is on record?
Its inhibition at 100 µM is 84%.

What about the inhibition at 100 µM [4] of the same compound?
The inhibition at 100 µM was greater than 60%.

Which results are given for `CCCN1CC(C(=O)O)n2c(c(-c3cccc(C(F)(F)F)c3)c(Cc3cccc4ccccc34)c(OCC)c2=O)S1(=O)=O` (stereo not shown) [Compound 143, 7-ethoxy-8-(naphthalen-1-ylmethyl)-6-oxo-2-propyl-9-(3-(trifluoromethyl)phenyl)-3,4-dihydro-2H,6H-pyrido[1,2-e][1,2,5]thiadiazine-4-carboxylic acid 1,1-dioxide]?
inhibition at 100 µM [1]: > 60%; inhibition at 100 µM [2]: 96%

How did the inhibition at 100 µM [1] turn out when `COc1ccc(CN2CC(C(=O)O)n3c2c(-c2cccc(C(F)(F)F)c2)c(Cc2cccc4ccccc24)c(Cl)c3=O)cc1` (stereo not shown) [Compound 192, 6-chloro-1-(4-methoxybenzyl)-7-(naphthalen-1-ylmethyl)-5-oxo-8-(3-(trifluoromethyl)phenyl)-1,2,3,5-tetrahydroimidazo[1,2-a]pyridine-3-carboxylic acid] was run?
Its inhibition at 100 µM is 31 to 60%.

And the inhibition at 100 µM [2]?
Its inhibition at 100 µM is 59%.

For `O=C(O)C1CN(CCCCCCCN2CC(C(=O)O)n3c2c(-c2cccc(C(F)(F)F)c2)c(Cc2cccc4ccccc24)c(Cl)c3=O)c2c(-c3cccc(C(F)(F)F)c3)c(Cc3cccc4ccccc34)c(Cl)c(=O)n21` (stereo not shown) [Compound 188, 1,1′-(heptane-1,7-diyl)bis(6-chloro-7-(naphthalen-1-ylmethyl)-5-oxo-8-(3-(trifluoromethyl)phenyl)-1,2,3,5-tetrahydroimidazo[1,2-a]pyridine-3-carboxylic acid)], which inhibition at 100 µM [1] is on record?
Its inhibition at 100 µM is greater than 60%.

What about the inhibition at 100 µM [2] of the same compound?
The inhibition at 100 µM was 62%.

Which results are given for `CN1CC(C(=O)O)n2c(c(-c3cccc(C(F)(F)F)c3)c(Cc3cccc4ccccc34)c(NC3CCCC3)c2=O)S1(=O)=O` (stereo not shown) [Compound 070, 7-(cyclopentylamino)-2-methyl-8-(naphthalen-1-ylmethyl)-6-oxo-9-(3-(trifluoromethyl)phenyl)-3,4-dihydro-2H,6H-pyrido[1,2-e][1,2,5]thiadiazine-4-carboxylic acid 1,1-dioxide]?
inhibition at 100 µM [3]: 53%; inhibition at 100 µM [4]: 31 to 60%

For `O=C(O)C1CN(CCc2ccccc2)c2c(-c3cccc(C(F)(F)F)c3)c(Cc3cccc4ccccc34)c(Cl)c(=O)n21` (stereo not shown) [Compound 178, 6-chloro-7-(naphthalen-1-ylmethyl)-5-oxo-1-phenethyl-8-(3-(trifluoromethyl)phenyl)-1,2,3,5-tetrahydroimidazo[1,2-a]pyridine-3-carboxylic acid], which inhibition at 100 µM [1] is on record?
The inhibition at 100 µM was 31 to 60%.

What about the inhibition at 100 µM [2] of the same compound?
The inhibition at 100 µM was 43%.

Which results are given for `O=C(O)[C@@H]1CN(Cc2ccccc2)c2c(-c3cccc(C(F)(F)F)c3)c(Cc3cccc4ccccc34)c(Cl)c(=O)n21` (single isomer, unassigned) [Compound 004a]?
inhibition at 100 µM [1]: 31 to 60%; inhibition at 100 µM [2]: 42%

Which inhibition at 100 µM [3] does the source give for `Nc1c(Cc2cccc3ccccc23)c(-c2cccc(C(F)(F)F)c2)c2n(c1=O)C(C(=O)O)CS2` (single isomer, unassigned) [Compound 020b, 6-amino-7-(naphthalen-1-ylmethyl)-5-oxo-8-(3-(trifluoromethyl)phenyl)-2,3-dihydro-5H-thiazolo[3,2-a]pyridine-3-carboxylic acid] here?
Its inhibition at 100 µM is 25%.

What about the inhibition at 100 µM [4] of the same compound?
Its inhibition at 100 µM is 11 to 30%.

For `O=C(O)C1CN(Cc2ccccc2)c2c(-c3cccc(C(F)(F)F)c3)c(Cc3cccc4ccccc34)c(Cl)c(=O)n21` (stereo not shown) [Compound 004, 1-benzyl-6-chloro-7-(naphthalen-1-ylmethyl)-5-oxo-8-(3-(trifluoromethyl)phenyl)-1,2,3,5-tetrahydroimidazo[1,2-a]pyridine-3-carboxylic acid], which inhibition at 100 µM [1] is on record?
Its inhibition at 100 µM is 31 to 60%.

And the inhibition at 100 µM [2]?
The inhibition at 100 µM was 55%.

Which inhibition at 100 µM [1] does the source give for `CC(C)CN1CC(C(=O)O)n2c1c(-c1cccc(C(F)(F)F)c1)c(Cc1cccc3ccccc13)c(Cl)c2=O` (stereo not shown) [Compound 164, 6-chloro-1-isobutyl-7-(naphthalen-1-ylmethyl)-5-oxo-8-(3-(trifluoromethyl)phenyl)-1,2,3,5-tetrahydroimidazo[1,2-a]pyridine-3-carboxylic acid] here?
The inhibition at 100 µM was 31 to 60%.

And the inhibition at 100 µM [2]?
The inhibition at 100 µM was 43%.

How did the inhibition at 100 µM [1] turn out when `CCc1c(Cc2cccc3ccccc23)c(-c2cccc(C(F)(F)F)c2)c2n(c1=O)C(C(=O)O)CN2Cc1ccc(OC)cc1` (stereo not shown) [Compound 161, 6-ethyl-1-(4-methoxybenzyl)-7-(naphthalen-1-ylmethyl)-5-oxo-8-(3-(trifluoromethyl)phenyl)-1,2,3,5-tetrahydroimidazo[1,2-a]pyridine-3-carboxylic acid] was run?
Its inhibition at 100 µM is 31 to 60%.

And the inhibition at 100 µM [2]?
Its inhibition at 100 µM is 44%.

Which inhibition at 100 µM [1] does the source give for `O=C(O)C1CN(CC2CCCCC2)c2c(-c3cccc(C(F)(F)F)c3)c(Cc3cccc4ccccc34)c(Cl)c(=O)n21` (stereo not shown) [Compound 180, 6-chloro-1-(cyclohexylmethyl)-7-(naphthalen-1-ylmethyl)-5-oxo-8-(3-(trifluoromethyl)phenyl)-1,2,3,5-tetrahydroimidazo[1,2-a]pyridine-3-carboxylic acid] here?
The inhibition at 100 µM was greater than 60%.

What about the inhibition at 100 µM [2] of the same compound?
The inhibition at 100 µM was 63%.

Which inhibition at 100 µM [1] does the source give for `CCCN1CC(C(=O)O)n2c(c(-c3cccc(C(F)(F)F)c3)c(Cc3cccc4ccccc34)c(O)c2=O)S1(=O)=O` (stereo not shown) [Compound 141, 7-hydroxy-8-(naphthalen-1-ylmethyl)-6-oxo-2-propyl-9-(3-(trifluoromethyl)phenyl)-3,4-dihydro-2H,6H-pyrido[1,2-e][1,2,5]thiadiazine-4-carboxylic acid 1,1-dioxide] here?
The inhibition at 100 µM was greater than 60%.

What about the inhibition at 100 µM [2] of the same compound?
The inhibition at 100 µM was 79%.

For `O=C(O)[C@H]1CN(Cc2ccccc2)c2c(-c3cccc(C(F)(F)F)c3)c(Cc3cccc4ccccc34)c(Cl)c(=O)n21` (single isomer, unassigned) [Compound 004b], which inhibition at 100 µM [1] is on record?
The inhibition at 100 µM was 31 to 60%.

And the inhibition at 100 µM [2]?
Its inhibition at 100 µM is 44%.

`CC1(C)Sc2c(-c3cccc(C(F)(F)F)c3)c(Cc3cccc4ccccc34)nc(=O)n2C1C(=O)O` (stereo not shown) [Compound 059, 2,2-dimethyl-7-(naphthalen-1-ylmethyl)-5-oxo-8-(3-(trifluoromethyl)phenyl)-2,3-dihydro-5H-thiazolo[3,2-c]pyrimidine-3-carboxylic acid] was tested. Which inhibition at 100 µM [3] did it give?
Its inhibition at 100 µM is 36%.

And the inhibition at 100 µM [4]?
The inhibition at 100 µM was 31 to 60%.

For `Cn1c(=O)c2c(nc(CCCCCCCN3CC(C(=O)O)n4c(c(-c5cccc(C(F)(F)F)c5)c(Cc5cccc6ccccc56)cc4=O)S3(=O)=O)n2C)n(C)c1=O` (stereo not shown) [Compound 047, 8-(naphthalen-1-ylmethyl)-6-oxo-9-(3-(trifluoromethyl)phenyl)-2-(7-(1,3,7-trimethyl-2,6-dioxo-2,3,6,7-tetrahydro-1H-purin-8-yl)heptyl)-3,4-dihydro-2H,6H-pyrido[1,2-e][1,2,5]thiadiazine-4-carboxylic acid 1,1-dioxide], which inhibition at 100 µM [3] is on record?
The inhibition at 100 µM was 21%.

And the inhibition at 100 µM [4]?
Its inhibition at 100 µM is 11 to 30%.

Which results are given for `O=C(O)C1CN(Cc2ccccc2)c2c(-c3cccc(C(F)(F)F)c3)c(Cc3cccc4ccccc34)c(F)c(=O)n21` (stereo not shown) [Compound 194, 1-benzyl-6-fluoro-7-(naphthalen-1-ylmethyl)-5-oxo-8-(3-(trifluoromethyl)phenyl)-1,2,3,5-tetrahydroimidazo[1,2-a]pyridine-3-carboxylic acid]?
inhibition at 100 µM [1]: 31 to 60%; inhibition at 100 µM [2]: 57%

Which inhibition at 100 µM [3] does the source give for `Cn1c(=O)c2c(ncn2CCCCCCCN2CC(C(=O)O)n3c(c(-c4cccc(C(F)(F)F)c4)c(Cc4cccc5ccccc45)cc3=O)S2(=O)=O)n(C)c1=O` (stereo not shown) [Compound 036] here?
Its inhibition at 100 µM is 16%.

What about the inhibition at 100 µM [4] of the same compound?
The inhibition at 100 µM was 11 to 30%.

What does the source list for `O=C(O)C1CSc2c(-c3cccc(C(F)(F)F)c3)c(Cc3cccc4ccccc34)c(CO)c(=O)n21` (stereo not shown) [Compound 057, 6-(hydroxymethyl)-7-(naphthalen-1-ylmethyl)-5-oxo-8-(3-(trifluoromethyl)phenyl)-2,3-dihydro-5H-thiazolo[3,2-a]pyridine-3-carboxylic acid]?
inhibition at 100 µM [3]: 54%; inhibition at 100 µM [4]: 31 to 60%

Which inhibition at 100 µM [3] does the source give for `O=C(O)c1c(-c2ccccc2)sc2c(-c3cccc(C(F)(F)F)c3)c(Cc3cccc4ccccc34)cc(=O)n12` [Compound 051, 7-(naphthalen-1-ylmethyl)-5-oxo-2-phenyl-8-(3-(trifluoromethyl)phenyl)-5H-thiazolo[3,2-a]pyridine-3-carboxylic acid] here?
The inhibition at 100 µM was 47%.

What about the inhibition at 100 µM [4] of the same compound?
Its inhibition at 100 µM is 31 to 60%.
